From patent US11382956B2, “Amylin analogues” (Zealand Pharma A/S, priority 2016, dated 2022)
Numbered stars: 1 amine (or outer) side, 2 acyl side, 3 side chain; on linkers, the order of the positions; unused ones are H or OH. Bridge positions count the residues as written; N and C are the ends. Square brackets hold non-standard residues; d marks the D form. Peptide text beside a SMILES is read from it. * marks the point of attachment. C20 diacid = O=C(O)CCCCCCCCCCCCCCCCCCC(=O)*; γGlu = O=C(O)[C@H](CCC(=O)[*:2])N[*:1]; Hyp = O=C(O)[C@@H]1C[C@@H](O)CN1; NMeI = CC[C@H](C)[C@H](NC)C(=O)O; Sar = CNCC(=O)O

Legend:
[1] = molecular target: T1, recombinant human calcitonin receptor (hCT-R) (Homo sapiens, UniProt P30988); test: hCT-R cAMP assay (AlphaScreen) in 1321N1 cells; assay type: cell-based; details: cAMP formation, 45 min stimulation
T1 construct: host or cells: human astrocytoma cell line 1321N1
T1 sequence (P30988 25-474): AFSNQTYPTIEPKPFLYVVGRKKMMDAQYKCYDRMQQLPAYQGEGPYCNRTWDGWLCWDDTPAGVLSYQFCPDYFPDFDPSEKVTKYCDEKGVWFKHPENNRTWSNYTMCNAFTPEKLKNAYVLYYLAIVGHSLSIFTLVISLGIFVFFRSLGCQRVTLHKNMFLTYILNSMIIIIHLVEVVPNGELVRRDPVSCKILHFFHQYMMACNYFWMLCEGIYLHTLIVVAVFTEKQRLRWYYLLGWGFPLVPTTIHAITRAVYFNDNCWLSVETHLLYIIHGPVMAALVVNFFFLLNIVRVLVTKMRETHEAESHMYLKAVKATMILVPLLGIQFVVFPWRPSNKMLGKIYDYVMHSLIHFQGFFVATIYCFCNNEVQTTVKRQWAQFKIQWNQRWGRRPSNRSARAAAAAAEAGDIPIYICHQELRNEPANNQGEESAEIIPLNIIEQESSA
Summary of the method: (§1)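 EC50 values come from curve fits over at least 7 peptide concentrations, with cAMP read by AlphaScreen competition after 1 h in the dark. Cells were 1321N1 lines carrying human calcitonin receptor, with RAMP3 co-expressed for AMY3, treated 45 min at room temperature in the presence of IBMX.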

[2] = molecular target: T2, recombinant human amylin 3 receptor (hAMYR3) (Homo sapiens, UniProt O60896+P30988); test: hAMYR3 cAMP assay (AlphaScreen) in 1321N1 cells; assay type: cell-based; details: cAMP formation, 45 min stimulation
T2 construct: host or cells: human astrocytoma cell line 1321N1
T2 sequence (P30988 25-474): T1 sequence (P30988 25-474)
T2 sequence (O60896 24-148 partner): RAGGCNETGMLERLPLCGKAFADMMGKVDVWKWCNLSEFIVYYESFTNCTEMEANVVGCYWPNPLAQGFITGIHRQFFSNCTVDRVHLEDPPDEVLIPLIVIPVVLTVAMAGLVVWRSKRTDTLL
Summary of the method: as §1

[3] = Assessment of chemical stability in 40 mM buffers at 40° C. (RP-HPLC); assay type: physicochemical; details: 1 mg/mL; for % degradation after 14 days at 40° C. pH4 acetate: acetate buffer pH 4, 14 days; for % degradation after 14 days at 40° C. pH6 phosphate: phosphate buffer pH 6, 14 days; for % degradation after 14 days at 40° C. pH7 phosphate: phosphate buffer pH 7, 14 days
Experimental: Samples of each test peptide were dissolved in acetate buffer pH 4 and phosphate buffer pH 6 and 7 (all buffer 40 mM). The final peptide concentration was 1 mg/mL. Samples were placed in glass vials and incubated at 40° C. The samples were analyzed by RP-HPLC on a C8 column with gradient elution using a trifluoroacetic acid/acetonitrile/water eluent system. The area-percentage (area-%) of the main peak was determined by UV spectroscopy at 220 nm at each sampling time point.
The % degradation was calculated by subtracting the […].
The results of the chemical stability assessment after 3 days of incubation time are summarized as % degradation in Table 1 (below).
The results of the chemical stability assessment after 14 days of incubation time are summarized as % degradation in Table 2 (below).

[4] = Assessment of physical stability: fibril formation by Thioflavin T fluorescence; assay type: physicochemical; parameters: key: FND = fibrillation not detected; FD = fibrillation detected; details: 1 mg/mL peptide; for Fibrillation (in buffer) pH4 acetate: 50 mM acetate buffer pH 4.0, 96 hours at 40° C.; for Fibrillation (in buffer) pH7 histidine: 50 mM histidine buffer pH 7.0, 96 hours at 40° C.; for Fibrillation (in buffer) pH7 phosphate: 50 mM phosphate buffer pH 7.0, 96 hours at 40° C.
Experimental: Solutions containing (i) 1 mg/mL of test peptide, 40 μM ThT and 50 mM phosphate (Ph) buffer (pH 7.0), (ii) 1 mg/mL of test peptide, 40 μM ThT and 50 mM histidine (His) buffer (pH 7.0), and (iii) 1 mg/mL of test peptide, 40 μM ThT and 50 mM acetate (Ac) buffer (pH 4.0), were loaded in a 96-well black fluorescence plate (clear bottom) in triplicate. Data were collected at fixed intervals of 10 min, each preceded by 300 s of automixing (agitation), over a period of 96 hours at 40° C. Physical stability is determined by measuring the fluorescence intensity over time. A significant increase in intensity is rated as fibrillation detected (FD).

CC[C@H](C)[C@@H](C(=O)N[C@@H](CC(C)C)C(=O)N[C@@H](CO)C(=O)N[C@@H](CO)C(=O)N[C@H](C(=O)N[C@@H](CCC(=O)O)C(=O)N[C@H](C(=O)NCC(=O)N[C@@H](CO)C(=O)N[C@@H](CC(N)=O)C(=O)N[C@H](C(=O)N1C[C@H](O)C[C@H]1C(N)=O)[C@@H](C)O)C(C)C)[C@@H](C)O)N(C)C(=O)[C@H](C)NC(=O)CN(C)C(=O)[C@H](Cc1ccccc1)NC(=O)[C@H](CO)NC(=O)[C@H](CO)NC(=O)[C@H](CCCNC(=N)N)NC(=O)[C@H](CCC(N)=O)NC(=O)[C@H](CC(C)C)NC(=O)[C@H](Cc1ccccc1)NC(=O)[C@H](CC(=O)O)NC(=O)[C@H](C)NC(=O)[C@H](CC(C)C)NC(=O)[C@H](CCCNC(=N)N)NC(=O)[C@H](CCC(N)=O)NC(=O)[C@@H](NC(=O)[C@H](C)NC(=O)[C@@H]1CSSC[C@H](NC(=O)[C@H](CCCNC(=N)N)NC(=O)CC[C@H](NC(=O)CCCCCCCCCCCCCCCCCCC(=O)O)C(=O)O)C(=O)N[C@@H](CC(N)=O)C(=O)N[C@@H]([C@@H](C)O)C(=O)N[C@@H](C)C(=O)N[C@@H]([C@@H](C)O)C(=O)N1)[C@@H](C)O [Ref. 5, [19CD]-isoGlu-RC()NTATC()ATQRLADFLQRSSF-Sar-A-Ile(Me)-LSSTEVGSNT-Hyp-NH2, reference compound] ({C20 diacid-γGlu}-RCNTATCATQRLADFLQRSSF[Sar]A[NMeI]LSSTEVGSNT[Hyp]-NH2; disulfide 2-7)
EC50 [1]: 0.063 nM
EC50 [2]: 0.028 nM
% degradation after 14 days at 40° C. pH4 acetate [3]: 3.0%
% degradation after 14 days at 40° C. pH6 phosphate [3]: 5.1%
% degradation after 14 days at 40° C. pH7 phosphate [3]: 12.7%
Fibrillation (in buffer) pH4 acetate [4]: FD
Fibrillation (in buffer) pH7 histidine [4]: FND
Fibrillation (in buffer) pH7 phosphate [4]: FND

CC[C@H](C)[C@@H](C(=O)N[C@@H](CC(C)C)C(=O)N[C@@H](CO)C(=O)N[C@@H](CO)C(=O)N[C@H](C(=O)N[C@@H](CCC(=O)O)C(=O)N[C@H](C(=O)NCC(=O)N[C@@H](CO)C(=O)N[C@@H](CC(N)=O)C(=O)N[C@H](C(=O)N1C[C@H](O)C[C@H]1C(N)=O)[C@@H](C)O)C(C)C)[C@@H](C)O)N(C)C(=O)[C@H](C)NC(=O)CN(C)C(=O)[C@H](Cc1ccccc1)NC(=O)[C@H](CO)NC(=O)[C@H](CO)NC(=O)[C@H](CCCNC(=N)N)NC(=O)[C@H](CCC(N)=O)NC(=O)[C@H](CC(C)C)NC(=O)[C@H](Cc1ccccc1)NC(=O)[C@H](CC(N)=O)NC(=O)[C@H](C)NC(=O)[C@H](CC(C)C)NC(=O)[C@H](CCCNC(=N)N)NC(=O)[C@H](CCC(N)=O)NC(=O)[C@@H](NC(=O)[C@H](C)NC(=O)[C@@H]1CCCCNC(=O)C[C@H](NC(=O)[C@H](CCCCN)NC(=O)CC[C@H](NC(=O)CCCCCCCCCCCCCCCCCCC(=O)O)C(=O)O)C(=O)NCC(=O)N[C@@H]([C@@H](C)O)C(=O)N[C@@H](C)C(=O)N[C@@H]([C@@H](C)O)C(=O)N1)[C@@H](C)O [Compound 43, [19CD]-isoGlu-KD()GTATK()ATQRLANFLQRSSF-Gly(Me)-A-Ile(Me)-LSSTEVGSNT-Hyp-NH2] ({C20 diacid-γGlu}-KDGTATKATQRLANFLQRSSF[Sar]A[NMeI]LSSTEVGSNT[Hyp]-NH2; lactam 2-7)
EC50 [1]: 0.021 nM
EC50 [2]: 0.007 nM
Fibrillation (in buffer) pH4 acetate [4]: FD
Fibrillation (in buffer) pH7 histidine [4]: FD
Fibrillation (in buffer) pH7 phosphate [4]: FD

CC[C@H](C)[C@@H](C(=O)N[C@@H](CC(C)C)C(=O)N[C@@H](CO)C(=O)N[C@@H](CO)C(=O)N[C@H](C(=O)N[C@@H](CCC(=O)O)C(=O)N[C@H](C(=O)NCC(=O)N[C@@H](CO)C(=O)N[C@@H](CC(N)=O)C(=O)N[C@H](C(=O)N1C[C@H](O)C[C@H]1C(N)=O)[C@@H](C)O)[C@@H](C)O)[C@@H](C)O)N(C)C(=O)[C@H](C)NC(=O)CN(C)C(=O)[C@H](Cc1ccccc1)NC(=O)[C@H](CO)NC(=O)[C@H](CO)NC(=O)[C@H](CCCNC(=N)N)NC(=O)[C@H](CCC(N)=O)NC(=O)[C@H](CC(C)C)NC(=O)[C@H](Cc1ccccc1)NC(=O)[C@H](CC(N)=O)NC(=O)[C@H](C)NC(=O)[C@H](CC(C)C)NC(=O)[C@H](CCCNC(=N)N)NC(=O)[C@H](CCC(N)=O)NC(=O)[C@@H](NC(=O)[C@H](C)NC(=O)[C@@H]1CCCCNC(=O)C[C@H](NC(=O)[C@H](CCCCN)NC(=O)CC[C@H](NC(=O)CCCCCCCCCCCCCCCCCCC(=O)O)C(=O)O)C(=O)NCC(=O)N[C@@H]([C@@H](C)O)C(=O)N[C@@H](C)C(=O)N[C@@H]([C@@H](C)O)C(=O)N1)[C@@H](C)O [Compound 44, [19CD]-isoGlu-KD()GTATK()ATQRLANFLQRSSF-Gly(Me)-A-Ile(Me)-LSSTETGSNT-Hyp-NH2] ({C20 diacid-γGlu}-KDGTATKATQRLANFLQRSSF[Sar]A[NMeI]LSSTETGSNT[Hyp]-NH2; lactam 2-7)
EC50 [1]: 0.02 nM
EC50 [2]: 0.009 nM
Fibrillation (in buffer) pH4 acetate [4]: FD
Fibrillation (in buffer) pH7 histidine [4]: FND
Fibrillation (in buffer) pH7 phosphate [4]: FND

CC[C@H](C)[C@@H](C(=O)N[C@@H](CC(C)C)C(=O)N[C@@H](CO)C(=O)N[C@@H](CO)C(=O)N[C@H](C(=O)N[C@@H](CCC(=O)O)C(=O)N[C@H](C(=O)NCC(=O)N[C@@H](CO)C(=O)N[C@@H](CC(N)=O)C(=O)N[C@H](C(=O)N1C[C@H](O)C[C@H]1C(N)=O)[C@@H](C)O)C(C)C)[C@@H](C)O)N(C)C(=O)[C@H](C)NC(=O)CN(C)C(=O)[C@H](Cc1ccccc1)NC(=O)[C@H](CO)NC(=O)[C@H](CO)NC(=O)[C@H](CCCNC(=N)N)NC(=O)[C@H](CCC(N)=O)NC(=O)[C@H](CC(C)C)NC(=O)[C@H](Cc1ccccc1)NC(=O)[C@H](Cc1c[nH]cn1)NC(=O)[C@H](C)NC(=O)[C@H](CC(C)C)NC(=O)[C@H](CCCNC(=N)N)NC(=O)[C@H](CCC(=O)O)NC(=O)[C@@H](NC(=O)[C@H](C)NC(=O)[C@@H]1CCCCNC(=O)C[C@H](NC(=O)[C@H](CCCNC(=N)N)NC(=O)CC[C@H](NC(=O)CCCCCCCCCCCCCCCCCCC(=O)O)C(=O)O)C(=O)NCC(=O)N[C@@H]([C@@H](C)O)C(=O)N[C@@H](C)C(=O)N[C@@H](CO)C(=O)N1)[C@@H](C)O [Compound 14, [19CD]-isoGlu-RD()GTASK()ATERLAHFLQRSSF-Gly(Me)-A-Ile(Me)-LSSTEVGSNT-Hyp-NH2] ({C20 diacid-γGlu}-RDGTASKATERLAHFLQRSSF[Sar]A[NMeI]LSSTEVGSNT[Hyp]-NH2; lactam 2-7)
EC50 [1]: 0.386 nM
EC50 [2]: 0.108 nM
% degradation after 14 days at 40° C. pH4 acetate [3]: 2.2%
% degradation after 14 days at 40° C. pH6 phosphate [3]: <1%
% degradation after 14 days at 40° C. pH7 phosphate [3]: 2.6%
